Laboratory results from patent publication US11434220B2, “Use of physiological cooling active ingredients, and compositions comprising such active ingredients” (BASF SE, priority 2017, dated 2022).

Experiments:
[1] = test system: oral cavity of trained panelists; test: Time-intensity profile of cooling after 40 s mouth rinse with sample solution; format: in vivo, human; conditions: for Cooling intensity: 40 s mouth rinse
Method: To establish a time-intensity profile, the oral cavity of trained panelists (n=8 to 11) was rinsed for 40 seconds with a mouthful of a sample solution (2 ppm of FEMA 4809 or 50 ppm of FEMA 4496 or 50 ppm of 1) to 5)). Subsequently, the cooling intensity perceived was assessed at defined time intervals using a scale.

trained panelists = test: Sensory assessment: cooling intensity of inventive amides in 5% sugar solution compared to FEMA 4809; format: in vivo, human; conditions: scale 1 (very weak) to 9 (very strong), n=10 to 11
Method: […] What were assessed here were initial cooling intensity, overall cooling intensity and long-lasting action on a scale from 1 (very weak) to 9 (very strong).

[2] = time 0 sec; 2 ppm FEMA 4809, 50 ppm FEMA 4496, 50 ppm 1) to 5)
[3] = time 40 sec; 2 ppm FEMA 4809, 50 ppm FEMA 4496, 50 ppm 1) to 5)
[4] = time 70 sec; 2 ppm FEMA 4809, 50 ppm FEMA 4496, 50 ppm 1) to 5)
[5] = time 100 sec; 2 ppm FEMA 4809, 50 ppm FEMA 4496, 50 ppm 1) to 5)
[6] = time 130 sec; 2 ppm FEMA 4809, 50 ppm FEMA 4496, 50 ppm 1) to 5)
[7] = time 160 sec; 2 ppm FEMA 4809, 50 ppm FEMA 4496, 50 ppm 1) to 5)
[8] = time 190 sec; 2 ppm FEMA 4809, 50 ppm FEMA 4496, 50 ppm 1) to 5)
[9] = time 220 sec; 2 ppm FEMA 4809, 50 ppm FEMA 4496, 50 ppm 1) to 5)
[10] = time 250 sec; 2 ppm FEMA 4809, 50 ppm FEMA 4496, 50 ppm 1) to 5)
[11] = time 280 sec; 2 ppm FEMA 4809, 50 ppm FEMA 4496, 50 ppm 1) to 5)
[12] = time 310 sec; 2 ppm FEMA 4809, 50 ppm FEMA 4496, 50 ppm 1) to 5)
[13] = time 340 sec; 2 ppm FEMA 4809, 50 ppm FEMA 4496, 50 ppm 1) to 5)
[14] = time 640 sec; 2 ppm FEMA 4809, 50 ppm FEMA 4496, 50 ppm 1) to 5)
[15] = time 940 sec; 2 ppm FEMA 4809, 50 ppm FEMA 4496, 50 ppm 1) to 5)
[16] = time 1240 sec; 2 ppm FEMA 4809, 50 ppm FEMA 4496, 50 ppm 1) to 5)

SMILES: Cc1ccc(/C=C/C(=O)N(c2ccccn2)C2CCSC2)cc1 (stereo not shown) [3), (E)-3-(p-tolyl)-N-(2-pyridyl)-N-tetrahydrothiophen-3-ylprop-2-enamide]
- Cooling intensity [1, 2]: 0.0
- Cooling intensity [1, 3]: 4.0
- Cooling intensity [1, 4]: 4.0
- Cooling intensity [1, 5]: 4.0
- Cooling intensity [1, 6]: 3.9
- Cooling intensity [1, 7]: 3.7
- Cooling intensity [1, 8]: 3.7
- Cooling intensity [1, 9]: 3.5
- Cooling intensity [1, 10]: 3.4
- Cooling intensity [1, 11]: 3.3
- Cooling intensity [1, 12]: 3.2
- Cooling intensity [1, 13]: 3.2
- Cooling intensity [1, 14]: 2.2
- Cooling intensity [1, 15]: 1.3
- Cooling intensity [1, 16]: 0.7

SMILES: CSCCN(C(=O)/C=C/c1ccc2c(c1)OCO2)c1ccccn1 [5), (E)-3-(1,3-benzodioxol-5-yl)-N-(2-methylsulfanylethyl)-N-(2-pyridyl)prop-2-enamide]
- Cooling intensity [1, 2]: 0.0
- Cooling intensity [1, 3]: 5.7
- Cooling intensity [1, 4]: 6.2
- Cooling intensity [1, 5]: 6.0
- Cooling intensity [1, 6]: 5.6
- Cooling intensity [1, 7]: 5.6
- Cooling intensity [1, 8]: 5.2
- Cooling intensity [1, 9]: 5.0
- Cooling intensity [1, 10]: 4.9
- Cooling intensity [1, 11]: 4.6
- Cooling intensity [1, 12]: 4.5
- Cooling intensity [1, 13]: 4.3
- Cooling intensity [1, 14]: 3.1
- Cooling intensity [1, 15]: 1.9
- Cooling intensity [1, 16]: 1.1

SMILES: CSCCN(C(=O)/C=C/c1ccc2c(c1)OCO2)c1cc[nH]n1 [(E)-3-(1,3-benzodioxol-5-yl)-N-(2-methylsulfanylethyl)-N-(1H-pyrazol-3-yl)prop-2-enamide]
- Initial cooling effect (trained panelists; 5 ppm in 5% sugar solution): 3.1
- Long-lasting action (trained panelists; 5 ppm in 5% sugar solution): 4.6
- Overall cooling intensity (trained panelists; 5 ppm in 5% sugar solution): 4.8
- Initial cooling effect (trained panelists; 20 ppm in 5% sugar solution): 3.7
- Long-lasting action (trained panelists; 20 ppm in 5% sugar solution): 6.6
- Overall cooling intensity (trained panelists; 20 ppm in 5% sugar solution): 6.6

SMILES: CSCCN(C(=O)/C=C/c1ccc2c(c1)OCO2)c1ccccn1 [(E)-3-(1,3-benzodioxol-5-yl)-N-(2-methylsulfanylethyl)-N-(2-pyridyl)prop-2-enamide]
- Initial cooling effect (trained panelists; 2 ppm in 5% sugar solution): 3.4
- Long-lasting action (trained panelists; 2 ppm in 5% sugar solution): 4.3
- Overall cooling intensity (trained panelists; 2 ppm in 5% sugar solution): 4.6
- Initial cooling effect (trained panelists; 20 ppm in 5% sugar solution): 6.2
- Long-lasting action (trained panelists; 20 ppm in 5% sugar solution): 7.5
- Overall cooling intensity (trained panelists; 20 ppm in 5% sugar solution): 7.8

SMILES: CSCCN(C(=O)/C=C/c1ccc2c(c1)OCO2)c1ccccc1 [(E)-3-(1,3-benzodioxol-5-yl)-N-(2-methylsulfanylethyl)-N-phenyl-prop-2-enamide]
- Initial cooling effect (trained panelists; 20 ppm in 5% sugar solution): 2.7
- Long-lasting action (trained panelists; 20 ppm in 5% sugar solution): 4.7
- Overall cooling intensity (trained panelists; 20 ppm in 5% sugar solution): 4.7

SMILES: CSCCN(C(=O)/C=C/c1ccc(C)cc1)c1ccccn1 [(E)-N-(2-methylsulfanylethyl)-3-(p-tolyl)-N-(2-pyridyl)prop-2-enamide]
- Initial cooling effect (trained panelists; 20 ppm in 5% sugar solution): 4
- Long-lasting action (trained panelists; 20 ppm in 5% sugar solution): 5.3
- Overall cooling intensity (trained panelists; 20 ppm in 5% sugar solution): 5.7

SMILES: CC1CCC(C(C)C)C(C(=O)Nc2ccc(CC#N)cc2)C1 (stereo not shown) [FEMA 4496]
- Cooling intensity [1, 2]: 0
- Cooling intensity [1, 3]: 1.9
- Cooling intensity [1, 4]: 2.3
- Cooling intensity [1, 5]: 2.4
- Cooling intensity [1, 6]: 2.3
- Cooling intensity [1, 7]: 2.3
- Cooling intensity [1, 8]: 2.3
- Cooling intensity [1, 9]: 2.2
- Cooling intensity [1, 10]: 2.2
- Cooling intensity [1, 11]: 2.2
- Cooling intensity [1, 12]: 2.1
- Cooling intensity [1, 13]: 2.1
- Cooling intensity [1, 14]: 2.0
- Cooling intensity [1, 15]: 1.5
- Cooling intensity [1, 16]: 1.2
- Onset of cooling activity ([1]; time-intensity profile, with respect to WS3): distinctly retarded onset of the cooling action

SMILES: CCNC(=O)C1CC(C)CCC1C(C)C (stereo not shown) [WS3, N-ethylmenthane-3-carboxamide]
- Cooling intensity [1, 2]: 0
- Cooling intensity [1, 3]: 4.3
- Cooling intensity [1, 4]: 4.3
- Cooling intensity [1, 5]: 4.1
- Cooling intensity [1, 6]: 3.7
- Cooling intensity [1, 7]: 3.4
- Cooling intensity [1, 8]: 3.1
- Cooling intensity [1, 9]: 2.9
- Cooling intensity [1, 10]: 2.8
- Cooling intensity [1, 11]: 2.4
- Cooling intensity [1, 12]: 2.3
- Cooling intensity [1, 13]: 2.1
- Cooling intensity [1, 14]: 1.2
- Cooling intensity [1, 15]: 0.5
- Cooling intensity [1, 16]: 0.3
